Entries after “also recorded” stand apart in the source; their conditions may differ.
Key:
[1] = test system: TNF-α, TGF-β, IL-17A, IL-35, IL-10; assay: ELISA of rat serum cytokines; assay type: in vivo; settings: 12 weeks after kidney transplantation, allogeneic recipients vs vehicle
Experimental: The levels of rat serum TNF-α, TGF-β, IL-17A, IL-35, IL-10 were quantified by rat TNF-α ELISA kit (MUTISCIENCES; China), rat TGF-β ELISA kit (MUTISCIENCES; China), rat IL-35 ELISA kit (MUTISCIENCES; China), rat IL-17A ELISA kit (MUTISCIENCES; China) and rat IL-10 ELISA kit (MUTISCIENCES; China), respectively. The assays were performed as described in the manufacturer's instructions.
At 12 weeks after kidney transplantation, serum isolated from rat peripheral blood was used to detect the concentration of inflammatory cytokines.

[2] = test system: T cells, B cells and plasma cells in peripheral blood; assay: Flow cytometry of T cells, B cells and plasma cells in rat peripheral blood; assay type: in vivo; settings: 8 weeks after kidney transplantation
Experimental: PBMCs were doubly incubated with FITC-conjugated anti-CD45R (2.5 μg/10^6 cells; eBioscience, Thermo Fisher Scientific, USA) and APC-conjugated anti-CD19 (2 μg/10^6 cells; Bioss, China), FITC-conjugated anti-CD45R (2.5 μg/10^6 cells; eBioscience, Thermo Fisher Scientific, USA) and Alexa Fluor 647 (conjugated anti-CD138 (0.1 μg/10^6 cells; Abcam, USA), APC-conjugated anti-CD3 (3 μg/10^6 cells; BioLegend, USA) and FITC-conjugated anti-CD4 (0.5 μg/10^6 cells; BioLegend, USA) as well as APC-conjugated anti-CD3 (3 μg/10^6 cells; BioLegend, USA) and Percp-eFluor710-conjugated anti-CD8 (0.3 μg/10^6 cells; BioLegend, USA), respectively. The percentages of CD45R^+CD19^+B cells, CD45R^−CD138^+ plasma cells, and CD3^+CD4^+ and CD3^+CD8^+ T cells were determined by flow cytometry (BD Accuri C6, BD Biosciences).
In order to investigate the immune state of syngenetic and allogenic rats, flow cytometry was used to test the amounts of T cells, B cells, and plasma cells.

[3] = test system: C4d and IgG deposition in allograft kidney; assay: Immunofluorescence staining of C4d and IgG deposition in allograft kidney; assay type: in vivo, Lewis rats; settings: 2 mg/kg
Experimental: (§1) Left kidney transplantation was performed between male F344 and Lewis rats [Vogelbacher R, et al. Nephrology, dialysis, transplantation: official publication of the European Dialysis and Transplant Association—European Renal Association. 2010; 25: 3764-73.]. The average time of cold ischemia time and warm ischemia time was 25 and 40 minutes, respectively. In order to allow the production of alloantibodies, no immunosuppressive agents were used within the first 2 weeks after kidney transplantation.

[4] = Long-term survival of allogeneic kidney transplant recipients; assay type: in vivo, Lewis rats; settings: right kidney resected 10 days after transplantation, vs vehicle, log-rank P<0.05
Text: (§2) After the resection of right kidney, the blood concentration of creatinine and urea nitrogen continued to deteriorate and reach the summit at 12 weeks after transplantation.

[5] = test system: donor specific alloantibody (DSA); assay: Donor specific alloantibody (DSA) analysis by flow cytometry; assay type: in vivo, Lewis rats; settings: allogeneic recipients, vs vehicle
Experimental: as §1
Spleen lymphocytes of normal F344 rats were extracted using lymphocyte separation medium. Serum samples of allogeneic rats were incubated with spleen lymphocytes at room temperature for 30 minutes. Spleen lymphocytes were washed for three times and then incubated with a fluorescein isothiocyanate (FITC)-labeled anti-rat IgG antibody (BD Biosciences) at room temperature for 30 min. Mean fluorescence intensity (MFI) was determined in order to assess DSA levels by flow cytometry (Beckman DxFLEX, Beckman, Brea, CA) [Zhao D, et al. American journal of transplantation: official journal of the American Society of Transplantation and the American Society of Transplant Surgeons. 2018; 18: 1083-95; Liao T, et al. Frontiers in immunology. […]

[6] = Renal function assessment (blood creatinine and urea nitrogen) after resection of native right kidney; assay type: in vivo, Lewis rats; settings: allogeneic recipients, right kidney resected 10 days after transplantation, vs vehicle
Experimental: Concentrations of rat blood creatinine and urea nitrogen were tested by instructions of manufacturer of the kits (JianCheng, China).
as §2

[7] = test system: renal allografts; assay: Histological examination of renal allografts (H&E, PAS, Masson staining) for severity of CAMR; assay type: in vivo, Lewis rats
Experimental: Left kidney transplantation was performed between male F344 and Lewis rats [Vogelbacher R, et al. Nephrology, dialysis, transplantation: official publication of the European Dialysis and Transplant Association—European Renal Association. 2010; 25: 3764-73.]. […] In order to allow the production of alloantibodies, no immunosuppressive agents were used within the first 2 weeks after kidney transplantation. […] Histological analysis was performed by using H&E, PAS and Masson staining. H&E, PAS and Masson trichome staining were performed as detailed elsewhere[Wang Z, et al. Journal of cellular and molecular medicine. 2017; 21: 2359-69.], which was used to evaluate the severity of CAMR. The diagnostic criteria of CAMR was according to Banff 2017 criteria. Characteristics of CAMR were defined as arterial intimal fibrosis, positive C4d staining in PTC and DSA. Measurement of arteriosclerosis caused by intimal fibrosis was performed for the areas surrounded by the luminal surface and internal elastic lamina of each vessel. The area determined by the internal elastic lamina subtraction of the internal elastic lamina to the luminal area was considered as the intimal area. Quantitative analysis the morphometric change of the kidney sections was performed according to results of two pathologists blinded to the experimental design independently.

[8] = test system: T cells, B cells, plasma cells and macrophages in allograft kidneys; settings: 12 weeks after transplantation
Experimental: Recipients with phosphate buffered saline alone were considered as the vehicle control. At 4, 8, 12 and 16 weeks, organs were harvested and divided into two parts, which were fixed in paraffin or snap-frozen in N2 and stored at −80° C. Peripheral blood mononuclear cells (PBMCs) were separated from the rat peripheral blood to be used in flow cytometry.
Paraffin-embedded sections (4 m) were incubated with primary antibodies against anti-phospho-BTK (1:100; Santa Cruz, USA), C4d (1:200, BioLegend, USA) CD3 (1:200, BioLegend, USA), CD4 (1:200, BioLegend, USA), CD8 (1:200, BioLegend, USA), CD19 (1:200, Bioss, China), CD138 (1:100, Abcam) and CD68 (1:100, Abcam) overnight at 4° C. in a humidified chamber. The appropriate isotype-matched IgG was used as the negative control. […] Quantitative analysis of positive cells (T cells, B cells, plasma cell and macrophages) and IgG positive area was analyzed by using Image-Pro Plus (Media Cybernetics, Rockville, MD). Quantitative analysis of C4d positive PTC was performed according to outcomes of two independent pathologists blinded to the experimental design.

[9] = after treatment for 10 weeks, 2 mg/kg, vs allograft kidneys

SMILES: C=CC(=O)N1CCC([C@@H]2CCNc3c(C(N)=O)c(-c4ccc(Oc5ccccc5)cc4)nn32)CC1 [Compound 1, (S)-7-(1-acryloylpiperidin-4-yl)-2-(4-phenoxyphenyl)-4,5,6,7-tetrahydropyrazolo-[1,5-a]pyrimidine-3-carboxamide]
- secretion of IL-10 (serum) [1]: further increased
- secretion of IL-35 (serum) [1]: further increased
- secretion of TGF-β (serum) [1]: further increased
- serum level of IL-17A [1]: reduce; also recorded: effectively decreased
- serum level of TNF-α [1]: reduce; also recorded: effectively decreased
- effect on T cells (CD3+CD4+, CD3+CD8+) in peripheral blood ([2]; 2 mg/kg): sight effect; also recorded: slight effects
- elevation of CD19+CD45R+ B cells in peripheral blood ([2]; 2 mg/kg for 6 weeks): significantly inhibited increases; also recorded: significantly suppressed
- elevation of plasma cells in peripheral blood ([2]; 2 mg/kg for 6 weeks): significantly inhibited increases; also recorded: significantly suppressed
- deposition of C4d in peritubular capillaries (PTC) ([3]; allograft kidney): dramatically reduced
- positive (lesion) area of IgG ([3]; allograft kidneys after treatment, almost 30% without treatment): less than 10%
- survival rate of allogeneic recipients [4]: significantly increased; also recorded: higher
- production of DSA ([5]; treatment from second week after transplantation, 8, 12, 16 weeks): significantly reduced; also recorded: prevented further production
- level of DSA ([5]; until end of treatment at 16 weeks): relatively low level
- blood creatinine [6]: remarkably inhibited the increases; also recorded: relatively low levels
- blood urea nitrogen [6]: remarkably inhibited the increases; also recorded: relatively low levels
- lesion area of interstitial fibrosis (PAS and Masson staining) [7, 9]: significantly ameliorated
- lesion area of tubular atrophy (PAS and Masson staining) [7, 9]: significantly ameliorated
- glomerular sclerosis (H&E staining) ([7]; allogeneic recipients, 2 mg/kg, vs vehicle): significantly ameliorated
- CAMR (fibrous intimal thickening in arteries, C4d deposition in PTC, increase of DSA) ([7]; allograft kidney, treatment from second week after transplantation): significantly alleviated
- infiltration of B cells in allograft kidney [8]: remarkably reduced; also recorded: significantly reduced
- infiltration of T cells in allograft kidney [8]: remarkably reduced; also recorded: significantly reduced
- infiltration of macrophages in allograft kidney [8]: remarkably reduced; also recorded: decrease
- infiltration of plasma cells in allograft kidney [8]: significantly reduced

— patent US20240139195A1, “METHODS OF TREATING CHRONIC ACTIVE ANTIBODY-MEDIATED REJECTION USING BTK INHIBITORS” (BeiGene Switzerland GmbH, priority 2021, published 2024)
